{"source": "patent US7955629B2", "about": "“Method of feeding milk replacer with carnitine” (Land O'Lakes Purina Feed LLC, priority 2005, dated 2011)", "origin": "cited, not measured here", "key": {"[1]": {"assay": "not given", "remark": "listed apart in the source"}, "[2]": {"assay": "not given", "remark": "listed apart in the source"}, "[3]": {"conditions": "ten month old steers; 0.6 and 1.2 grams per day; forty two day trial"}}}
{"compound": "C[N+](C)(C)CC(O)CC(=O)[O-]", "note": "(centres unmarked) [carnitine]", "values": [{"measurement": "Acetate to proprionate ratios", "setting": "mature ruminally cannulated steers", "value": "not effected"}, {"measurement": "nitrogen uptake from the rumen", "setting": "supplementation at high levels in a high roughage diet", "value": "little effect"}, {"measurement": "average daily gain compared to the control", "setting": "[1]; heifers fed 0.6 and 1.2 grams per day, midpoint of the experiment", "value": "statistically significantly greater"}, {"measurement": "average daily weight gain, fed or not fed carnitine", "setting": "[1]; heifers, end of the forty two day experiment", "value": "no statistically significant difference"}, {"measurement": "milk fat content and milk fat yield", "setting": "[2]; dosed directly into the abomasum", "value": "decreased"}, {"measurement": "digestible and metabolized energy from the diet", "setting": "[2]; dosed directly into the rumen or abomasum", "value": "tended to increase"}, {"measurement": "Milk production", "setting": "[2]; dosed into the rumen or abomasum", "value": "not affected"}, {"measurement": "effectiveness of carnitine (backfat depths)", "setting": "[3]", "value": "inconclusive"}]}
